The text below walks through data of PMC12818745 (ACS Chemical Neuroscience, 2025).

The target of one experiment is T1, Aβ42 aggregation (Homo sapiens, UniProt P05067).
T1 construct: expressed in transfected cells; host or cells: E. coli BL21 (DE3), pET vector
Description: Thioflavin S assay of Aβ42 aggregation in E. coli cells overexpressing Aβ42. The format is cell-based, Escherichia coli. The settings on record: read-out: Aβ42 inhibition %. Put shortly: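 E. coli BL21(DE3) expressing Met-Aβ42 were grown in M9 medium with 25 μM ThS, induced with IPTG at OD600 0.6 and grown overnight at 37 °C with compound (final 10 μM). ThS emission at 485 nm (ex 445 nm, 25 °C) was normalised to OD600. Uninduced cells set 0% and induced DMSO cells 100%.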

Another experiment concerns the target T2, Aβ42 peptide (Homo sapiens, UniProt P05067).
T2 construct: Synthetic Aβ42 (GenScript) was dissolved in hexafluoro-2-propanol (HFIP); purchased GenScript; host or cells: chemical synthesis
Description: TEM of Aβ42 fibril growth. The settings on record: Aβ42 10 μM, compound 50 μM, 6–48 h, 37 °C. The method, then:
We selected compound 11r for further investigation of its ability to interfere with the Aβ42 aggregation process in vitro. The decision was based on the structural potential of the chromeno[3,4-b]-xanthone scaffold, the encouraging results for 11r, and its overall profile in our preliminary studies. […] The morphological changes of Aβ42 species were assessed through transmission electron microscopy (TEM), in the presence and absence of 11r. […] In the absence of 11r (Figure , top panels), as early as 6 h of incubation at 37 °C, (white arrow), short (white arrowhead) and long fibrils were detected. As incubation progressed, long fibrils were more abundant, while other species became scarce, resulting in bundles of tangled fibrils after 48 h (Figure ).
Synthetic Aβ42 (GenScript) was dissolved in hexafluoro-2-propanol (HFIP) (Merck) and left at room temperature (RT) for 48 h. Subsequently, the HFIP was removed using a stream of nitrogen, and the resulting powder was dissolved in dimethyl sulfoxide (DMSO) (Sigma-Aldrich) at a concentration of 2000 μM. […]
The βnalysis of the morphology and fibril formation of samples coincubated with Aβ42 (10 μM) (GenScript) and the selected compounds (50 μM) at different time-points (6, 12, 24, and 48 h) at 37 °C, was assessed through TEM. […]

The target in another experiment is T3, Tau protein aggregation (Homo sapiens, UniProt P10636).
T3 construct: For the cloning and overexpression of full-length tau protein; expressed in transfected cells; host or cells: E. coli BL21 (DE3) carrying pTARA and pRKT42
T3 sequence (P10636 other isoform, or with tags, fused parts or gaps): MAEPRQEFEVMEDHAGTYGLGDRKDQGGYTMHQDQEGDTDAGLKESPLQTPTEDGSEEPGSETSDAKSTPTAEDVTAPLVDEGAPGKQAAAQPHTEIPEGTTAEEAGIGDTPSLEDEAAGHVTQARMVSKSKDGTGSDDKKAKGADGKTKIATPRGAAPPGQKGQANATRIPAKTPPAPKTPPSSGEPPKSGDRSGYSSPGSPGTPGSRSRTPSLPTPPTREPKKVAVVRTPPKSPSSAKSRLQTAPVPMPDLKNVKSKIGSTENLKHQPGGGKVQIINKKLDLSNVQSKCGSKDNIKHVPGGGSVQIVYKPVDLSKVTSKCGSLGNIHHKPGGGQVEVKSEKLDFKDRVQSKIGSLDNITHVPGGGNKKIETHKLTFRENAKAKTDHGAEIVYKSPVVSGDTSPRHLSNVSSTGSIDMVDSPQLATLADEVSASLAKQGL
Description: Thioflavin S assay of tau protein aggregation in E. coli cells overexpressing tau. To be noted: read-out: Tau inhibition %. The format is cell-based, Escherichia coli. On the procedure: The antiaggregating profiles of both series A and B were evaluated using a fluorescence Thioflavin S (ThS) assay in cellulo, which monitors ThS fluorescence in the presence of β-sheet-rich structures, such as Aβ and tau protein aggregates. This method, based on recombinant Escherichia coli (E. coli) bacteria overexpressing insoluble aggregates, offers a simple and cost-effective approach to model aggregation processes in mammalian systems and has been validated for use in drug discovery studies. , Compounds were tested at a screening concentration of 50 μM for their ability to inhibit Aβ42 aggregation. The results, summarized in Table , reveal distinct antiaggregating profiles between series A and B, which are once again influenced by their structural differences.
This strategic extension aimed to validate the chromeno[3,4-b]-xanthone scaffold for related aggregation targets, considering the structural and pathological similarities between Aβ and tau aggregation processes. […]. […] Nevertheless, it is important to interpret the results cautiously, as the inability of certain compounds to cross bacterial membranes, may have underestimated their true inhibitory activity in the assay.
For the cloning and overexpression of full-length tau protein, E. coli BL21 (DE3) competent cells were transformed first with the pTARA vector containing the RNA polymerase gene of phage T7 (T7RP), controlled by the PBAD promoter. Subsequently, E. coli BL21(DE3) competent cells containing pTARA were transformed with the pRKT42 vector encoding four repeats of tau protein in two inserts. Similar to the procedure for Aβ42, overnight cultures were prepared by inoculating colonies of BL21 (DE3) cells bearing the plasmids in M9 medium supplemented with 0.5% glucose, 50 μg mL^–1 ampicillin, and 12.5 μg mL^–1 chloramphenicol at 37 °C. Upon induction, a 1:500 dilution of the overnight culture was added to fresh M9 minimal medium containing 0.5% glucose, 50 μg mL^–1 ampicillin, 12.5 μg mL^–1 chloramphenicol, and 25 μM ThS. The subsequent steps mirrored those for the Aβ assay, including the addition of the compound to be tested dissolved in DMSO and 10 μL of 25% arabinose or, alternatively, 10 μL of water for the noninduced controls, with a final compound concentration of […]. Negative controls for tau overexpression utilized free DMSO.
ThS (T1892) and all other chemical reagents were purchased from Sigma (St. Louis, MO). Stock solutions of ThS (250 μM) were prepared using doubly distilled water purified via a Milli-Q system (Millipore). For the fluorescence assay, ThS spectra were recorded utilizing an AmincoBowman series 2 luminescence spectrophotometer (Aminco-Bowman AB2, SLM Aminco, Rochester, NY) within the range of 460 to 600 nm at a temperature of 25 °C. The excitation wavelength employed was 445 nm, with slit widths set at 4 nm. The emission at 485 nm, corresponding to the ThS peak observed in the presence of amyloids, was recorded. To standardize ThS fluorescence relative to bacterial concentration in both in vitro and cell-based assays, the OD600 was determined using a Shimadzu UV-2401 PC UV–vis spectrophotometer. Fluorescence normalization was executed by setting the ThS fluorescence of bacterial cells expressing the peptide or protein in the absence of the drug as 100%, while that of bacterial cells not expressing the peptide or protein was established as 0%.

T1 sequence (P05067 672-713): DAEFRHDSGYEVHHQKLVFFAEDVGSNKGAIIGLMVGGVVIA
T2 sequence (P05067 672-713 limits assumed): as the sequence (P05067 672-713) above

As usually defined, the inhibition is the change of the read-out against control, counted positive when it falls. Turning to `C#CCN(CC#C)c1ccccc1/C=C/c1cc(=O)c2ccccc2o1` [Compound 10, (E)-2-{2-[Di(prop-2-yn-1-yl)amino]styryl}-4H-chromen-4-one], the inhibition at 50 µM at Aβ42 aggregation came to 36 ± 18.3%.

Regarding `COc1ccc2c(=O)c3cc4c(cc3oc2c1)-c1cc(Cl)ccc1OC4` [Compound 11r, 2-Chloro-11-methoxy-6H,8H-chromeno[3,4-b]xanthen-8-one], the “Effect on Aβ42 fibril morphology (TEM)” value on Aβ42 peptide is recorded as “inhibiting Aβ42 fibrillogenesis”. The inhibition at 50 µM turned out to be 61.3 ± 5.9% on Tau protein aggregation and 57 ± 5.7% at Aβ42 aggregation.
